Like-named read-outs stand apart in the source and are kept apart here.
Tests used:
[1] = test system: MOML-13; assay: Combination Index (Chou-Talalay) of Compound 1 with additional therapeutic agents; assay type: cell-based, human; conditions: for Combination Index of Compound 1 + agent: MOML-13, CI scores across all 3 ratios averaged; for action of the combination with Compound 1 (synergistic, additive, antagonistic): MOML-13 (FLT3 heterozygous, BRCA2 mutant)
Procedure: (§1) Each combination was tested in 3 cell lines: MOML-13 (Human Acute Myeloid Leukemia cell line; Addex Bio), MV-4-11 (Human B Myelomoncytic Leukemia cell line; ATCC), and OCI-AML-3 (Human Acute Myeloid Leukemia cell line).
(§2) Within this range, 20 dose levels were tested for each combination, with each response determined in duplicate. […] The actual drug concentrations in the ratios were determined from the IC50 values obtained for each individual drug.
(§3) Raw data was analyzed using Graph Pad Prism, four parameter logistic fits, and Chou-Talalay drug combination analyses. […] For data points with Fe<0, the fractional effect was set to 0.001. Data points with Fe>0.99 or <0.01 were omitted from the Chou-Talalay analysis because the Chou-Talalay analysis fits data to the Log of the fractional effect, with equal weight applied across the range of effect, such that the high and low end of the dose response, very small changes in effect within the range of experimental error erroneously skew the outcome of the model fit.
(§4) A Combination Index (CI) vs Fractional Effect plot showing the actual combination index plotted vs Fractional effect value was plotted for each combination dose. In this analysis, CI=1 represents additive activity, CI>1 represent less than additive activity (often referred to as antagonism) and CI<1=synergistic activity (better than additive).

[2] = test system: MV-4-11; assay: as above; assay type: cell-based, human; conditions: for Combination Index of Compound 1 + agent: MV-4-11, CI scores across all 3 ratios averaged
Procedure: as §1, §2, §3, §4

[3] = test system: OCI-AML-3; assay: as above; assay type: cell-based, human; conditions: for Combination Index of Compound 1 + agent: OCI-AML-3, CI scores across all 3 ratios averaged
Procedure: as §1, §2, §3, §4

[4] = test system: HL-60 cell line; assay: Combination treatments, Cell Titer-Glo viability after 72 hours; assay type: cell-based, human
Procedure: (§5) The additional therapeutic agents for this example were azacitidine (Cayman Chemical Cat No. 11164), decitabine (Sigma Cat No. A3656) and venetoclax (InvivoChem Cat. No. V0001).
(§6) Cell Culture: Three human acute myeloid leukemia tumor cell lines were used in this study: HL60, MV4;11 and MOLM-13. HL60 and MV4;11 were grown in IMDM base media with 20% and 10% FBS, respectively. MOLM-13 was grown in RPMI 1640 base media with 20% FBS. All culture media contained 2 mM glutamine, 100 units/mL sodium penicillin G, […] gentamicin, and 100 μg/mL streptomycin sulfate. The tumor cells were cultured in tissue culture flasks in a humidified incubator at 37° C., in an atmosphere of 5% C02 and 95% air. Assay: Tumor cells were seeded in duplicate in a volume of 100 μL/well of media into 96-well micro-culture plates at initial densities low enough to allow for several population doublings (typically three to five) during the indicated incubation period. After a 24 hour incubation, test agents were added to each well. After 72 hours of culture with test articles, cell viability was determined using the Cell Titer-Glo® (Promega G7571) assay. Briefly, Cell Titer-Glo® (Promega G7571) reagents were equilibrated at room temperature for 30 minutes; 100 μL per well was added at endpoint (72 hours). Plates were gently shaken for two minutes and then incubated at room temperature for ten minutes prior to reading luminescence on the BMG Clariostar Plus microplate reader.
(§7) An IC50 ratio for each combination was calculated from the ratio of the combination IC50 as compared to the applicable no fixed agent (vehicle) control.

[5] = test system: MOML-13 cell line; assay: as above; assay type: cell-based, human
Procedure: as §5, §6, §7

[6] = test system: MV4; 11 cell line; assay: as above; assay type: cell-based, human
Procedure: as §5, §6, §7

[7] = test system: human A549 lung adenocarcinoma xenograft tumors; assay: Tumor growth of A549 xenograft tumors; assay type: in vivo, mice; conditions: 55 mg/kg QD4/3 off
From the text: (§8) Group 1 received PO 4-days on, 3-days off doses (QD4/3 off) of vehicle.

[8] = 55 mg/kg QD4/3 off
From the text: as §8

[9] = Adverse events and visual impairment in Phase I subjects; conditions: at equivalent plasma exposure of Compound 1 and CB-5083
[10] = HL-60, fixed agent Compound 1 - 210 nM
[11] = MOML-13, fixed agent Compound 1 - 75 nM
[12] = MV4, 11, fixed agent Compound 1 - 185 nM

| Compound | Combination Index of Compound 1 + agent [1] | Combination Index of Compound 1 + agent [2] | Combination Index of Compound 1 + agent [3] | further results |
| --- | --- | --- | --- | --- |
| COCC1(CO)C(=O)C2CCN1CC2 (stereo not shown) [APR-246] | 1.228 | 1.285 | 1.279 | – |
| C[C@@H]1COCCN1c1cc(C2([S@](C)(=N)=O)CC2)nc(-c2cc[nH]c3nccc2-3)n1 [AZD6738] | 1.338 | 1.228 | 1.421 | – |
| CN(C)CCCOc1ccc(-c2ccc3ncc4c(c3c2)n(C2CCOCC2)c(=O)n4C)cn1 [AZDO156] | 1.293 | 1.122 | 1.159 | – |
| Nc1ncn([C@@H]2O[C@H](CO)[C@@H](O)[C@H]2O)c(=O)n1 [Azacitidine, azacitidine, reference compound] | – | – | – | Combination: Monotherapy IC50 Ratio [4, 10]: 0.82; IC50 ([4]; Homo sapiens, 72 h, HL-60, no fixed agent (vehicle), read-out: IC50): 2400 nM; IC50 ([5]; Homo sapiens, 72 h, MOML-13, no fixed agent (vehicle), read-out: IC50): 445 nM; Combination: Monotherapy IC50 Ratio [5, 11]: 0.28; IC50 ([6]; Homo sapiens, 72 h, MV4, 11, no fixed agent (vehicle), read-out: IC50): 1100 nM; Combination: Monotherapy IC50 Ratio [6, 12]: 0.10 |
| Cc1cc2c(C(N)=O)cccc2n1-c1nc2c(c(NCc3ccccc3)n1)COCC2 [CB-5083, 1-[7,8-dihydro-4-[(phenylmethyl)amino]-5H-pyrano[4,3-d]pyrimidin-2-yl]-2-methyl-1H-indole-4-carboxamide, reference compound] | – | – | – | TGI [7]: 33%; drug-related deaths [8]: no drug-related deaths; symptoms of visual impairment or other visual adverse events [9]: visual adverse events as seen |
| Nc1ncn([C@H]2C[C@H](O)[C@@H](CO)O2)c(=O)n1 [Decitabine, decitabine, reference compound] | – | – | – | Combination: Monotherapy IC50 Ratio [4, 10]: 0.76; IC50 [4, 10]: 4030 nM; IC50 ([4]; Homo sapiens, HL-60, 72 h): 5290 nM; IC50 ([5]; Homo sapiens, 72 h): 10.8 nM; Combination: Monotherapy IC50 Ratio [5, 11]: 0.60; IC50 [5, 11]: 6.5 nM; IC50 ([6]; Homo sapiens, MV4-11, 72 h): 390 nM; Combination: Monotherapy IC50 Ratio [6, 12]: 0.02; IC50 [6, 12]: 7.1 nM |
| CCc1nc(C(N)=O)c(Nc2ccc(N3CCC(N4CCN(C)CC4)CC3)c(OC)c2)nc1NC1CCOCC1 [Gilteritinib] | 1.266 | 0.799 | 1.514 | – |
| CC(C)C[C@H](NC(=O)CNC(=O)c1cc(Cl)ccc1Cl)B(O)O [Ixazomib] | 1.413 | 1.546 | 1.438 | action of the combination with Compound 1 (synergistic, additive, antagonistic) [1]: antagonistic; action of the combination with Compound 1 (synergistic, additive, antagonistic) ([2]; MV-4-11 (FLT3 homozygous mutant)): antagonistic; action of the combination with Compound 1 (synergistic, additive, antagonistic) ([3]; OCI-AML-3 (FLT3 wildtype)): antagonistic |
| COc1ccc([C@@H](O)c2cc(-c3ncnc4cc(N5CCOCC5)ccc34)c(F)cc2Cl)nn1 [Nedisertib] | 1.272 | 0.986 | 1.170 | – |
| NS(=O)(=O)OC[C@@H]1C[C@@H](n2ccc3c(N[C@H]4CCc5ccccc54)ncnc32)C[C@@H]1O [Pevonedistat] | 1.120 | 1.302 | 1.186 | – |
| Cn1ncnc1[C@H]1c2n[nH]c(=O)c3cc(F)cc(c23)N[C@@H]1c1ccc(F)cc1 [Talazoparib] | 0.529 | 0.769 | 0.986 | action of the combination with Compound 1 (synergistic, additive, antagonistic) [1]: strong synergy |
| CC1(C)CCC(CN2CCN(c3ccc(C(=O)NS(=O)(=O)c4ccc(NCC5CCOCC5)c([N+](=O)[O-])c4)c(Oc4cnc5[nH]ccc5c4)c3)CC2)=C(c2ccc(Cl)cc2)C1 [Venetoclax] | 0.730 | 0.819 | 0.855 | – |
